Among the test systems are ACHN renal; CAKI-1 renal; EKVX NSCLC; HL-60(TB) leukemia; HS 578T breast; MDA-MB-231 breast; MDA-N; OVCAR-4 ovarian; SK-MEL-2 melanoma; NCI-H522 lung.
Holding throughout (test): NCI-60 cell line screen, 48 h

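96-well plates; 48 h exposure; 5 concentrations. Endpoints by linear interpolation between flanking doses. Not reached: highest tested concentration assigned. TGI: total growth inhibition.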

Regarding `O=[N+]([O-])c1cc(Cl)ccc1S(=O)(=O)c1cc(Cl)cc2c1NCCC2`, the TGI in the assay on ACHN renal, with CAKI-1 renal, in the assay on EKVX NSCLC, in the assay with HL-60(TB) leukemia, in the assay on HS 578T breast and in the assay with MDA-MB-231 breast was above 100 µM in each case. The TGI in the assay with MDA-N, with OVCAR-4 ovarian and in the assay on SK-MEL-2 melanoma was above 100 µM each time.

For `Cc1ccsc1/C=N/Nc1ccccn1`, the TGI with ACHN renal was above 100 µM; in the assay on CAKI-1 renal, above 100 µM; in the assay with EKVX NSCLC, 96.5 µM; in the assay with HS 578T breast it was above 100 µM; in the assay with MDA-MB-231 breast, above 100 µM; in the assay on MDA-N it was above 100 µM. The TGI in the assay with OVCAR-4 ovarian and in the assay on SK-MEL-2 melanoma was above 100 µM throughout.

As for `O=C(NC(CO)CO)c1ccc2cc(C(=O)N3CC(CCl)c4ccc([N+](=O)[O-])cc43)[nH]c2c1` (centres undefined), the TGI in the assay with ACHN renal, with CAKI-1 renal, in the assay on EKVX NSCLC, in the assay with HL-60(TB) leukemia, in the assay on HS 578T breast and in the assay on MDA-MB-231 breast was above 100 µM each time. Also, the TGI with MDA-N, in the assay with OVCAR-4 ovarian and in the assay on SK-MEL-2 melanoma was above 100 µM each time.

Consider `CC(=O)C(C(=O)C(C)(C)C)C(=O)C(C)(C)C`, for which the TGI in the assay with ACHN renal, with CAKI-1 renal, with HL-60(TB) leukemia, with HS 578T breast, in the assay with MDA-MB-231 breast and in the assay on MDA-N was above 100 µM throughout. Further, the TGI in the assay on NCI-H522 lung, in the assay with OVCAR-4 ovarian and in the assay with SK-MEL-2 melanoma was above 100 µM each time.

Turning to `O=C1/C(=C2\SCC(=O)N2c2ccccc2)SC(=S)N1c1ccccc1`, the TGI in the assay with ACHN renal was 97.7 µM; with CAKI-1 renal, 57.1 µM; in the assay on EKVX NSCLC it was 82 µM; in the assay on HL-60(TB) leukemia it was above 100 µM; in the assay on HS 578T breast, above 100 µM; in the assay with MDA-MB-231 breast, 45.2 µM. The TGI is above 100 µM in the assay on MDA-N, 66.9 µM in the assay on OVCAR-4 ovarian and above 100 µM with SK-MEL-2 melanoma.

For the molecule `CC(C)(C)OC(=O)NCCNC(=O)CN(CC(=O)O)C1CCCCC1N(CC(=O)O)CC(=O)O` (centres undefined), the TGI in the assay with ACHN renal, with CAKI-1 renal, with HL-60(TB) leukemia, in the assay on HS 578T breast, with MDA-MB-231 breast and with MDA-N was above 100 µM in each case. The TGI in the assay with NCI-H522 lung, in the assay with OVCAR-4 ovarian and in the assay on SK-MEL-2 melanoma was above 100 µM throughout.

`Clc1cccc(N=C/C=C/Nc2cccc(Cl)c2)c1`: the TGI was 65.1 µM in the assay on CAKI-1 renal; 39.9 µM in the assay on HL-60(TB) leukemia; above 100 µM with HS 578T breast; 29.4 µM with MDA-MB-231 breast; 26.8 µM in the assay with MDA-N; 29.3 µM with NCI-H522 lung. This molecule also had a TGI in the assay on OVCAR-4 ovarian above 100 µM.

Turning to `CC1CN=C(N(C)C(=O)Nc2ccc(Cl)c(Cl)c2)S1` (centres undefined), the TGI in the assay on ACHN renal was above 100 µM; in the assay with CAKI-1 renal it was 61.8 µM; in the assay on EKVX NSCLC, above 100 µM; with HL-60(TB) leukemia, 57.1 µM; in the assay on HS 578T breast, above 100 µM; in the assay on MDA-MB-231 breast it was above 100 µM. In addition, the TGI was above 100 µM in the assay on MDA-N, above 100 µM in the assay on OVCAR-4 ovarian and 44.2 µM in the assay with SK-MEL-2 melanoma.

Regarding `COc1cc(C2C3=C(N=C4SC(C(C)=O)=C(C)N42)c2ccccc2CC3)cc(OC)c1OC` (centres undefined), the TGI was above 100 µM with ACHN renal; above 100 µM in the assay with EKVX NSCLC; 81.4 µM with HL-60(TB) leukemia; above 100 µM with HS 578T breast; above 100 µM with MDA-MB-231 breast; above 100 µM in the assay on MDA-N. Besides, the TGI with OVCAR-4 ovarian and in the assay with SK-MEL-2 melanoma was above 100 µM each time.

For `O=C(c1ccccc1)n1[nH]c(=O)n(-c2ccc(Cl)cc2)c1=O`, the TGI with ACHN renal, in the assay with CAKI-1 renal, in the assay with EKVX NSCLC, with HL-60(TB) leukemia, in the assay on HS 578T breast and in the assay with MDA-MB-231 breast was above 100 µM throughout. Also, the TGI with MDA-N, in the assay on OVCAR-4 ovarian and in the assay with SK-MEL-2 melanoma was above 100 µM each time.

Consider `CC(C)=CCC/C(C)=C/CC/C(C)=C/CSc1ccc(Cl)cc1C(=O)O`, for which the TGI in the assay on ACHN renal was found to be 35.9 µM; with CAKI-1 renal, 43.5 µM; in the assay on EKVX NSCLC it was 37 µM; in the assay on HL-60(TB) leukemia it was 50.8 µM; with HS 578T breast, 49.7 µM; with MDA-MB-231 breast, 63.4 µM. The results for the TGI in the assay on MDA-N, in the assay on OVCAR-4 ovarian and in the assay on SK-MEL-2 melanoma were 60.3 µM, 86.8 µM and 28.8 µM, respectively.

Consider `CCOC(=O)/C=C1/Nc2cc(F)c(F)cc2NC1=O`, for which the TGI in the assay with ACHN renal, in the assay on CAKI-1 renal, in the assay on EKVX NSCLC, in the assay with HL-60(TB) leukemia, with HS 578T breast and with MDA-MB-231 breast was above 100 µM throughout. Moreover, the TGI with MDA-N, with OVCAR-4 ovarian and with SK-MEL-2 melanoma was above 100 µM each time.

Values taken from PubChem BioAssay (NCI).
